Source: patent publication US10765625B2, “Knottin-drug conjugates and methods of using the same” (THE BOARD OF TRUSTEES OF THE LELAND STANFORD JUNIOR …, priority 2016, dated 2020)
Read-outs that look alike come from different tables or passages of the source.

Legend:
Format in all cases: cell-based
U87MG cells [1] = experiment: Premature drug release study: cell proliferation (CCK-8) with hENT1 inhibitor 6 co-administered; details: for Fold Increase in ED50 in U87MG Cells: ED50 with 6 / ED50 without 6, minus 1
Protocol: (§1) U87MG, and PANC-1 cells were grown in Dulbecco's Modified Eagle Medium (DMEM) with 10% fetal bovine serum (FBS) and 1% penicillin/streptomycin. MDA-MB-468 cells were grown in DMEM and Ham's F-12 medium (DMEM/F12) with 10% FBS and 1% penicillin/streptomycin. A2780 and BxPC3 cells were grown in Roswell Park Memorial Institute medium (RPMI) 1640+L-glutamine, with 10% FBS and 1% penicillin/streptomycin. D270 cells were grown in MEM (Richter's modification, no phenol red) with 10% FBS and 0.1% Gentamicin. Unless otherwise specified, cells were incubated at 37° C., 5% CO2. Flow cytometry was performed using an EMD Millpore Guava EasyCyte 8HT flow cytometer and the resulting data were evaluated using FlowJo software provided by TreeStar, Inc. Cell proliferation was measured using the Dojindo Cell Counting Kit-8 by replacing the media in each well with 100 μL of media containing 10% WST-8. After incubation for 1 h at 37° C., absorbance, A, at 450 nm was measured with a BioTek Synergy H4 microtiter plate reader. The background signal of CCK-8 alone was subtracted from all samples. Cell proliferation was then expressed as a percentage of absorbance relative to the control of untreated cells (Equation 2). Nonlinear regression analysis was performed using GraphPad Prism.
The relative extent of premature drug-release in the cases of 5a, 5c, and 5d was next determined in order to identify the linker best-suited for delivering the drug payload intracellularly. An established technique for blocking the cellular uptake of Gemcitabine by using S (4-nitrobenzyl)-6-thioinosine (6) was employed, which is known to inhibit human equilibrative nucleoside transporters, such as hENT1. Because hENT1 is a critical regulator of the cellular internalization of Gemcitabine, it was reasoned that by inhibiting its activity with 6, the cytotoxic effect of any drug payload that was released in the extracellular environment could be diminished. It was anticipated that this would allow the distinction between KDCs that were potent due to the undesirable release of Gemcitabine outside of the cell from those that released Gemcitabine intracellularly (FIG. 6). The extent of premature drug release in the extracellular environment was studied by inhibiting activity of nucleoside transporters (such as hENT1) of U87MG cells through the use of the hENT1 inhibitor S-(4-nitrobenzyl)-6-thioinosine (6). […] In a similar fashion, it was expected that for KDCs which released a significant amount of the drug payload in the extracellular environment, an increase in the concentration of 6 should result in a concomitant increase in ED50 value.
Media used to prepare varying concentrations of drug, protein, or protein-drug conjugate also contained varying concentrations of the hENT1 inhibitor, 6. Additionally, prior to treatment, cell were incubated at 37° C., 5% CO2 with fresh media containing the varying concentrations of 6 for 2 h. Cell proliferation was measured using the Cell Counting Kit-8 by replacing the media in each well with 100 μL of media containing 10% WST-8. After incubation for 1 h at 37° C., absorbance at 450 nm was measured with a Synergy H4 microtiter plate reader. ED50 values were determined by nonlinear regression analysis. Example dose-response curves for 3 (FIG. 7) and 5d (FIG. 8) are provided. Cell proliferation was measured according to the method described in Section 1.3. Error bars represent the standard deviation of experiments performed in triplicate.
These values were normalized as Fold Increase in ED50 (defined in Equation 2) by dividing the ED50 of each drug when 6 was co-administered at concentration=C by the ED50 of that same drug when no 6 was added, then subtracting 1 (thus, a “0-fold increase” would mean no increase, while a “1-fold increase” would mean that the ED50 value had doubled). Fold Increase in ED50 for each drug at each concentration of 6 is provided in Table 5, and these values were used to generate FIG. 9.

[2] = test system: PANC-1 pancreatic cancer cells; experiment: Cell proliferation, CCK-8 colorimetric assay; details: 4 d after treatment, read-out: ED50 (nM), cell growth inhibition
Protocol: as §1
(§2) Having identified KDC 5d as a potent inhibitor of U87MG cells with desirable payload-release properties, its efficacy against a variety of other cell lines in comparison with Gemcitabine (3) was next tested. Cells were seeded in a 96-well plate at a density of 2,500 cells per well and grown overnight at 37° C., 5% CO2 in the media described in Section 1.3. Cells were subsequently treated with 100 μL of fresh media, containing 50 nM of 3 or 5d. Cells were incubated at 37° C., 5% CO2 for 4 d. Cell proliferation was measured using the Cell Counting Kit-8 by replacing the media in each well with 100 μL of media containing 10% WST-8. After incubation for 1 h at 37° C., absorbance at 450 nm was measured with a Synergy H4 microtiter plate reader. Cell proliferation was measured according to the method described in Section 1.3. Error bars represent the standard deviation of experiments performed in triplicate.

[3] = test system: MDA-MB-468 breast cancer cells; experiment: Cell proliferation, CCK-8 colorimetric assay; details: 4 d after treatment, read-out: ED50 (nM), cell growth inhibition
Protocol: as §1, §2

[4] = test system: BxPC3 pancreatic cancer cells; experiment: Cell proliferation, CCK-8 colorimetric assay; details: 4 d after treatment, read-out: ED50 (nM), cell growth inhibition
Protocol: as §1, §2

D270 glioblastoma cells = experiment: Cell proliferation, CCK-8 colorimetric assay; details: 4 d after treatment, read-out: ED50 (nM), cell growth inhibition
Protocol: as §1, §2

[5] = test system: A2780 ovarian cancer cells; experiment: Cell proliferation, CCK-8 colorimetric assay; details: 4 d after treatment, read-out: ED50 (nM), cell growth inhibition
Protocol: as §1, §2

U87MG cells [6] = experiment: Cell proliferation, CCK-8 colorimetric assay
Protocol: as §1
Next, the potency of each KDC was tested in a cell-proliferation experiment. […] Cells were seeded in a 96-well plate at a density of 2,500 cells per well and grown overnight at 37° C., 5% CO2 in DMEM with 10% FBS and 1% penicillin/streptomycin. Cells were subsequently treated with 100 μL of fresh media, containing varying concentrations of drug, protein, or protein-drug conjugate and incubated for 4 d at 37° C., 5% CO2. Cell proliferation was measured according to the method described in Section 1.3. Error bars represent the standard deviation of experiments performed in triplicate. […] Given that the linker must be cleaved to release free Gemcitabine in order for the payload to become active, the low potency of 5b can be explained by the greater stability of the carbamate group as compared to the other linkers tested.

SMILES: CC(C)C[C@@H]1NC(=O)[C@@H]2CSSC[C@@H](C(=O)NCC(=O)O)NC(=O)[C@H](Cc3ccccc3)NC(=O)CNC(=O)[C@H](CC(N)=O)NC(=O)[C@@H]3CCCN3C(=O)CNC(=O)[C@@H]3CSSC[C@H](NC(=O)[C@H]([C@@H](C)O)NC(=O)[C@H](CC(C)C)NC(=O)[C@@H]4CCCN4C(=O)[C@@H]4CCCN4C(=O)[C@H](CC(N)=O)NC(=O)[C@H](CC(=O)O)NC(=O)CNC(=O)[C@H](CCCNC(=N)N)NC(=O)[C@@H]4CCCN4C(=O)[C@H](CCCNC(=N)N)NC(=O)[C@@H]4CCCN4C(=O)[C@@H](NC(=O)CN)CSSC[C@H](NC(=O)CNC(=O)[C@H](C)NC1=O)C(=O)N[C@@H](C(C)C)C(=O)N3)C(=O)N[C@@H](CCCn1cc(CCC(=O)N[C@H](C(=O)N[C@@H](C)C(=O)Nc3ccc(COC(=O)Nc4ccn([C@@H]5O[C@H](CO)[C@@H](O)C5(F)F)c(=O)n4)cc3)C(C)C)nn1)C(=O)N[C@@H](CCC(N)=O)C(=O)N[C@@H](CC(=O)O)C(=O)N[C@@H](CO)C(=O)N[C@@H](CC(=O)O)C(=O)N2 [5d]
- Effect of hENT1 inhibitor 6 on potency (ED50) (in words) (U87MG cells [1]; U87MG cells, increasing concentrations of 6 up to 10 μM): no effect on the potency
- Fold Increase in ED50 in U87MG Cells (U87MG cells [1]; [6] = 0 nM): 0
- Fold Increase in ED50 in U87MG Cells (U87MG cells [1]; [6] = 1 nM): −0.3 ± 0.3
- Fold Increase in ED50 in U87MG Cells (U87MG cells [1]; [6] = 10 nM): −0.6 ± 0.6
- Fold Increase in ED50 in U87MG Cells (U87MG cells [1]; [6] = 100 nM): 0.6 ± 1.0
- Fold Increase in ED50 in U87MG Cells (U87MG cells [1]; [6] = 1000 nM): 1.2 ± 1.2
- Fold Increase in ED50 in U87MG Cells (U87MG cells [1]; [6] = 10000 nM): 8.1 ± 5.4
- EC50 [2]: 2.1 ± 0.2 nM
- EC50 [3]: 0.6 ± 0.1 nM
- EC50 [4]: 1.8 ± 0.8 nM
- EC50 (D270 glioblastoma cells): 7.9 ± 0.8 nM
- EC50 [5]: 2.3 ± 0.5 nM
- Potency / growth inhibition in U87MG cells (in words) (U87MG cells [6]; U87MG cells, 4 d): low-nanomolar ED50 values
- EC50 (U87MG cells [6]; U87MG cells, 4 d incubation, vs untreated control, read-out: ED50 (nM), potency): 9 ± 1.8 nM
- EC50 (U87MG cells [6]; U87MG glioblastoma, 4 d after treatment, read-out: ED50 (nM), cell growth inhibition): 9 ± 1.8 nM
